From patent publication EP4644383A1 (Jiangsu Yahong Meditech Co., Ltd., priority 2022, dated 2024) come the findings set out here.

SMILES strings stand for the structures. Read-outs that look alike come from different tables or passages of the source.

What all share (type): cell-based
One experiment deals with Ba/F3-BCR-FGFR1 cells. The experiment can be described thus: Inhibition of proliferation activity of Ba/F3-BCR-FGFR1 cells (CellTiter-Glo). The conditions noted are these: read-out: IC50 (nM) Ba/F3-BCR-FGFR1. The protocol: (§1) The present experiment used CellTiter-Glo® Luminescent Cell Viability Assay (Promega: G7573) kit, which was a homogeneous cell viability detection method and determined the cell viability of cultured cells by quantifying ATP. • ① Ba/F3-BCR-FGFR1 or Ba/F3-FGFR3-BAIAP2L1 cells were cultured in 1640 complete medium (Gibco: 11879020) (10% FBS (Gibco: 10091-148)+1% Pen Strep (Gibco: 15140122)) under the condition of 37°C and 5% CO2. • (2) The cells in logarithmic growth phase were harvested and counted using a […]. The trypan blue exclusion method was used to detect cell viability to ensure the cell viability was above 90%. • ③ The cell density was adjusted using 1640 complete medium, and then, the cells were seeded into a 96-well cell culture plate at 90 µL/well with a total of 2000 cells. • ④ A 10-fold drug solution was prepared starting from a maximum drug concentration of 10 µM and 4-fold serially diluted into10 concentrations. Then, 10 µL of each of the serially diluted compounds was transferred to the corresponding experimental wells of a 96-well cell plate, with two replicates for each drug concentration. • ⑤ The 96-well plate with the cells that had been treated with the drugs was placed under the condition of 37°C and 5% CO2 to be further cultured for 72 hours, and then analyzed by CTG. • ⑥ The CTG reagent was melted and the cell plate was equilibrated to room temperature for 30 minutes. • ⑦ 50 µL of the CTG solution was added to each well. • ⑧ The cell plate was shaken on an orbital shaker for 5 minutes to lyse the cells. • ⑨ The cell plate was placed at room temperature for 20 minutes to stabilize the luminescence signal. The luminescence values were read to collect the data. • ⑩ The data were analyzed using XLFit excel plugin version 5.5.0.5, and fitted with non-linear S-curve regression to obtain the dose-response curves and thus calculate the IC50 values. Y = Bottom + (Top-Bottom)/((1+(IC50/X))^(∧) HillSlope [formula]
(§2) "Top" refers to the maximum response, "Bottom" refers to the minimum response, and "HillSlope" refers to the slope of the curve.
(§3) "Max" represents the average value of the cell control+DMSO, and "Min" represents the average value of the medium control+DMSO.
Background: In ATP-based viability assays light output follows the ATP content of the culture.

In experiment [1] the test system is Ba/F3-FGFR3-BAIAP2L1 cells. Put plainly: Inhibition of proliferation activity of Ba/F3-FGFR3-BAIAP2L1 cells (CellTiter-Glo). To be noted: for IC50: read-out: IC50 (nM) Ba/F3-FGFR3-BAIAP2L1; for Selectivity (X) FGFR1/FGFR3: ratio of IC50 Ba/F3-BCR-FGFR1 to IC50 Ba/F3-FGFR3-BAIAP2L1. The protocol:
as §1, with “Then, 10 µL of each of the serially diluted compounds was transferred to the corresponding experimental wells of a 96-well cell plate, with two replicates for each drug concentration. • ⑤ The 96-well plate with the cells that had been treated with the drugs was placed under the condition of 37°C and 5% CO2 to be further cultured for 72 hours, and then analyzed by CTG. • ⑥ The CTG reagent was melted and the cell plate was equilibrated to room temperature for 30 minutes. • ⑦ 50 µL of the CTG solution was added to each well. • ⑧ The cell plate was shaken on an orbital shaker for 5 minutes to lyse the cells. • ⑨ The cell plate was placed at room temperature for 20 minutes to stabilize the luminescence signal.” left out
as §2, §3

A further experiment deals with RT112-FGFR3-V555M cells. The experiment can be described thus: Inhibition of proliferation activity of RT112-FGFR3-V555M cells (CellTiter-Glo). To be noted: read-out: IC50 (nM) RT112-FGFR3-V555M. The protocol:
The present experiment used CellTiter-Glo® Luminescent Cell Viability Assay (Promega: G7573) kit, which was a homogeneous cell viability detection method and determined the cell viability of cultured cells by quantifying ATP. • ① RT112-FGFR3-V555M cells were cultured in MEM complete medium (Gibco: 51200038) (10% FBS (Gibco: 10091-148)+1% Pen Strep (Gibco: 15140122)+1% NEAA (Gibco: 11140050)) under the condition of 37°C and 5% CO2. • (2) The cells in logarithmic growth phase were harvested and counted using a […]. The trypan blue exclusion method was used to detect cell viability to ensure the cell viability was above 90%. • ③ The cell density was adjusted using MEM complete medium, and then, the cells were seeded into a 96-well cell culture plate at 90 µL/well with a total of 5000 cells. • ④ The 96-well plate with the cells was placed under the condition of 37°C and 5% CO2 to be cultured for 24 hours. • ⑤ 24 hours later, a 10-fold drug solution was prepared starting from a maximum drug concentration of 10 µM and 4-fold serially diluted into10 concentrations. Then, 10 µL of each of the serially diluted compounds was transferred to the corresponding experimental wells of a 96-well cell plate, with two replicates for each drug concentration. • ⑥ The 96-well plate with the cells that had been treated with the drugs was placed under the condition of 37°C and 5% CO2 to be further cultured for 72 hours, and then analyzed by CTG. • ⑦ The CTG reagent was melted and the cell plate was equilibrated to room temperature for 30 minutes. • ⑧ 50 µL of the CTG solution was added to each well. • ⑨ The cell plate was shaken on an orbital shaker for 5 minutes to lyse the cells. • ⑩ The cell plate was placed at room temperature for 20 minutes to stabilize the luminescence signal. The luminescence values were read to collect the data. • ⑪ The data were analyzed using XLFit excel plugin version 5.5.0.5, and fitted with non-linear S-curve regression to obtain the dose-response curves and thus calculate the IC50 values. Y = Bottom + (Top-Bottom)/((1+(IC50/X))^(∧) HillSlope [formula]
as §2
"Max" represents the average value of the cell+DMSO control, and "Min" represents the average value of the medium control+DMSO.

Where [2] appears, read: Ba/F3-BCR-FGFR1 cells, 72 hours, CTG.
Setting [3] is: Ba/F3-FGFR3-BAIAP2L1 cells, 72 hours, CTG.
Where [4] appears, read: RT112-FGFR3-V555M cells, 72 hours, CTG.

Regarding `C[C@@H](Oc1ccc2[nH]nc(-c3ccc(S(C)(=N)=O)nc3)c2c1)c1c(Cl)cncc1Cl` (stereo partly drawn) [Comparative Example 85, (5-(5-((R)-1-(3,5-dichloropyridin-4-yl)ethoxy)-1H-indazol-3-yl)pyridin-2-yl)(imino)(methyl)-sulfanone, reference compound], the IC50 with Ba/F3-BCR-FGFR1 cells (72 h) came out at 615 nM; in experiment [1] (72 h) it was 5.4 nM; in the experiment with RT112-FGFR3-V555M cells (72 h), 334 nM.

Consider `C[C@@H](Oc1cc(F)c2[nH]nc(-c3cnn(CCN4CCOCC4)c3)c2c1)c1c(Cl)cncc1Cl` [Example 12, (R)-4-(2-(4-(5-(1-(3,5-dichloropyridin-4-yl)ethoxy)-7-fluoro-1H-indazol-3-yl)-1H-pyrazol-1-yl)ethyl)morph oline], for which the figures for the IC50 (in the experiment on Ba/F3-BCR-FGFR1 cells (setting [2]); in experiment [1] (setting [3])) were 592 nM and 4.6 nM, respectively. Also, the “Selectivity (X) FGFR1/FGFR3” value in experiment [1] is recorded as 129 X.

Turning to `C[C@@H](Oc1ccc2[nH]nc(-c3cnn(C)c3)c2n1)c1c(Cl)cncc1Cl` [Example 29, (R)-5-(1-(3,5-dichloropyridin-4-yl)ethoxy)-3-(1-methyl-1H-pyrazol-4-yl)-1H-pyrazolo[4,3-b]pyridine], the IC50 in the experiment with Ba/F3-BCR-FGFR1 cells (setting [2]) was 38 nM; in experiment [1] (setting [3]), 0.3 nM. In experiment [1], the “Selectivity (X) FGFR1/FGFR3” value is listed as 127 X.

As for `C[C@@H](Oc1ccc2[nH]nc(-c3cnn(CCN4CCN(C)C(=O)C4)c3)c2n1)c1c(Cl)cncc1Cl` [Example 54, (R)-4-(2-(4-(5-(1-(3,5-dichloropyridin-4-yl)ethoxy)-1H-pyrazolo[4,3-b]pyridin-3-yl)-1H-pyrazol-1-yl)ethyl)-1-methylpiperazin-2-one], the results for the IC50 (with Ba/F3-BCR-FGFR1 cells (setting [2]); in experiment [1] (setting [3])) were 177 nM and 1.2 nM, respectively. The “Selectivity (X) FGFR1/FGFR3” value in experiment [1] turned out to be 147 X.

As to `C[C@@H](Oc1ccc2[nH]nc(-c3cnn(CCN4CCS(=O)(=O)CC4)c3)c2n1)c1c(Cl)cncc1Cl` [Example 55, (R)-4-(2-(4-(5-(1-(3,5-dichloropyridin-4-yl)ethoxy)-1H-pyrazolo[4,3-b]pyridin-3-yl)-1H-pyrazol-1-yl)ethyl)thiomorph oline 1,1-dioxide], the IC50 came out at 88.5 nM in the experiment with Ba/F3-BCR-FGFR1 cells (setting [2]) and 0.7 nM in experiment [1] (setting [3]). Besides, the “Selectivity (X) FGFR1/FGFR3” value in experiment [1] came out at 126 X.

Regarding `CC(Oc1ccc2[nH]nc(-c3cnn(C)c3)c2c1)c1cccc2ncccc12` (centres unmarked) [Example 88, 5-(1-((3-(1-methyl-1H-pyrazol-4-yl)-1H-indazol-5-yl)oxy)ethyl)quin oline], the IC50 stood at 3420 nM in the experiment with Ba/F3-BCR-FGFR1 cells (setting [2]) and 19 nM in experiment [1] (setting [3]). The “Selectivity (X) FGFR1/FGFR3” value in experiment [1] is recorded as 180 X.

`CC(Oc1ccc2[nH]nc(-c3cnn(C)c3)c2c1)c1cccc2nccnc12` (centres unmarked) [Example 92, 5-(1-((3-(1-methyl-1H-pyrazol-4-yl)-1H-indazol-5-yl)oxy)ethyl)quin oxaline]: the IC50 in the experiment with Ba/F3-BCR-FGFR1 cells (setting [2]) was determined as 98.6 nM; in experiment [1] (setting [3]), 2.8 nM. In addition, the “Selectivity (X) FGFR1/FGFR3” value in experiment [1] amounted to 35 X.

Take `Cc1ccc2ncccc2c1C(C)Oc1ccc2[nH]nc(-c3cnn(C)c3)c2c1` (centres unmarked) [Example 95, 6-methyl-5-(1-((3-(1-methyl-1H-pyrazol-4-yl)-1H-indazol-5-yl)oxy)ethyl)quinolinee]: the figures for the IC50 (with Ba/F3-BCR-FGFR1 cells (setting [2]); in experiment [1] (setting [3]); with RT112-FGFR3-V555M cells (setting [4])) were 406 nM, 8 nM and 110 nM, respectively. The “Selectivity (X) FGFR1/FGFR3” value in experiment [1] was 51 X.

With `CC(Oc1ccc2[nH]nc(-c3cnn(C)c3)c2c1)c1cccn2ncnc12` (centres unmarked) [Example 101, 8-(1-((3-(1-methyl-1H-pyrazol-4-yl)-1H-indazol-5-yl)oxy)ethyl)-[1,2,4]triazolo[1,5-a]pyridine], the IC50 with Ba/F3-BCR-FGFR1 cells (setting [2]) stood at 246 nM; in experiment [1] (setting [3]), 10.6 nM. In addition, the “Selectivity (X) FGFR1/FGFR3” value in experiment [1] was found to be 23 X.

As to `CC(Oc1ccc2[nH]nc(-c3cnn(C)c3)c2c1)c1c(C(F)F)ccc2ncccc12` (centres unmarked) [Example 127, 6-(difluoromethyl)-5-(1-((3-(1-methyl-1H-pyrazol-4-yl)-1H-indazol-5-yl)oxy)ethyl)quinoline], the IC50 is 941 nM in the experiment on Ba/F3-BCR-FGFR1 cells (setting [2]), 4.8 nM in experiment [1] (setting [3]) and 118 nM in the experiment with RT112-FGFR3-V555M cells (setting [4]). For the same compound, the “Selectivity (X) FGFR1/FGFR3” value in experiment [1] came out at 195 X.

`CC(Oc1ccc2[nH]nc(-c3cnn(C)c3)c2c1)c1c(CF)ccc2ncccc12` (centres unmarked) [Example 130, 6-(fluoromethyl)-5-(1-((3-(1-methyl-1H-pyrazol-4-yl)-1H-indazol-5-yl)oxy)ethyl)q uinoline]: the results for the IC50 (in the experiment on Ba/F3-BCR-FGFR1 cells (setting [2]); in experiment [1] (setting [3]); in the experiment with RT112-FGFR3-V555M cells (setting [4])) were 1190 nM, 12.9 nM and 152 nM, respectively.

As for `CC(Oc1ccc2[nH]nc(-c3cnn(C)c3)c2c1)c1cc(Cl)cc2nccnc12` (centres unmarked) [Example 136, 7-chloro-5-(1-((3-(1-methyl-1H-pyrazol-4-yl)-1H-indazol-5-yl)oxy)ethyl)qu inoxaline], the IC50 is 377 nM in the experiment on Ba/F3-BCR-FGFR1 cells (setting [2]), 3.4 nM in experiment [1] (setting [3]) and 119 nM in the experiment with RT112-FGFR3-V555M cells (setting [4]). For the same compound, the “Selectivity (X) FGFR1/FGFR3” value in experiment [1] amounted to 111 X.

For the compound `Cc1cc2nccnc2c(C(C)Oc2ccc3[nH]nc(-c4cnn(C)c4)c3c2)n1` (centres unmarked) [Example 183, 7-methyl-5-(1-((3-(1-methyl-1H-pyrazol-4-yl)-1H-indazol-5-yl)oxy)ethyl)pyridino [3,4-b]pyrazine], the figures for the IC50 (in the experiment on Ba/F3-BCR-FGFR1 cells (setting [2]); in experiment [1] (setting [3]); with RT112-FGFR3-V555M cells (setting [4])) were 55.3 nM, 0.4 nM and 10.4 nM, respectively. Further, in experiment [1], the “Selectivity (X) FGFR1/FGFR3” value is reported as 139 X.

For `COCC(=O)N1CC(n2cc(-c3n[nH]c4ccc(OC(C)c5cccc6nccnc56)cc34)cn2)C1` (centres unmarked) [Example 188, 2-methoxy-1-(3-(4-(5-(1-(quinoxalin-5-yl)ethoxy)-1H-indazol-3-yl)-1H-pyrazol-1-yl)azetidin-1-yl)ethan-1-one], the IC50 was found to be 277 nM in the experiment with Ba/F3-BCR-FGFR1 cells (setting [2]), 3.1 nM in experiment [1] (setting [3]) and 70.1 nM in the experiment with RT112-FGFR3-V555M cells (setting [4]). In addition, the “Selectivity (X) FGFR1/FGFR3” value in experiment [1] was 91 X.
